This experiment deals with T1, rhGCase (Cerezyme) (Homo sapiens, UniProt P04062, R534H).
T1 construct: Human full-length wild-type GCase protein (Cerezyme®, Genzyme, Naarden, Netherlands); purchased Genzyme, Naarden, Netherlands
T1 sequence (P04062 40-536 R534H): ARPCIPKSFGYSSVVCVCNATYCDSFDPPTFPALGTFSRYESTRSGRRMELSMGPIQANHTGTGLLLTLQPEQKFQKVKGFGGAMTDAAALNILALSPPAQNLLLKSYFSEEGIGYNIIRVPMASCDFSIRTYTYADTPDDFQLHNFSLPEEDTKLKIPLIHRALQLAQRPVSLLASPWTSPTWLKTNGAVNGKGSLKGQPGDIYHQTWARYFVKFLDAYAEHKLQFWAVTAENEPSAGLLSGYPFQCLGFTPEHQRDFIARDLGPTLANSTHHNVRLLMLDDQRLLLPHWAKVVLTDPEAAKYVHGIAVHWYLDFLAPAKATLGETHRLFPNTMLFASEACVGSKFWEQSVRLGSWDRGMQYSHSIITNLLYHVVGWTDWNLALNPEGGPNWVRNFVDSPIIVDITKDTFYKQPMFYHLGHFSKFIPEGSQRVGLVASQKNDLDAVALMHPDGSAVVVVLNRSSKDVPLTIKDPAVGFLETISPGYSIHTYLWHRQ
Briefly: nanoDSF thermal stability of rhGCase. Type of experiment: binding. The protocol: The stabilizing effects of GT-02287 and GT-02329 on GCase were assessed by nanoDSF. rhGCase protein (Cerezyme®, Genzyme, Naarden, Netherlands) was prepared at 0.1 mg/mL in two buffers: buffer 1 (10 mmol/L Citric Acid, 20 mmol/L Na2HPO4, pH 7.0) and buffer 2 (50 mmol/L Histidine, 150 mmol/L NaCl, pH 5.0). DMSO was added to a final concentration of 2%.
Samples were loaded into nanoDSF standard capillaries and analyzed using the Prometheus NT.48 instrument (NanoTemper Technologies, Munich, Germany). The thermal unfolding of GCase was monitored by tracking intrinsic fluorescence changes in tryptophan and tyrosine residues as the temperature increased from 20 °C to 95 °C at 2 °C/min. Each condition was run in duplicate at 25 μM and 100 μM compound concentrations. Melting temperatures (Tm) were determined from the fluorescence curves, and ΔTm shifts between compound-treated and control samples were calculated. The significance of Tm shifts was assessed using two criteria: an absolute ΔTm shift greater than 1.0 °C (instrumental criterion) and an absolute ΔTm standard deviation of 0.2 °C or less (statistical criterion).
In general terms: Differential scanning fluorimetry follows unfolding on heating by fluorescence.

Where two headings read alike, the source gives them in different places.

Take `OC[C@H]1CNC[C@@H](O)[C@@H]1O` [IFG, isofagomine]: the “Effect on protein thermal stability at pH 5.0” value (pH 5.0) was “demonstrated stabilization”. The ΔTm (in general, the change in melting temperature against a reference sample) at 100 µM by setting is: (pH 5.0, 100 µM compound, mean ± SD of two experiments, read-out: ΔTm at pH 5.0 and 100 µM) 3 °C; (pH 7.0, 100 µM compound, mean ± SD of two experiments, read-out: ΔTm at pH 7.0 and 100 µM) 11.5 °C. Also, under “pH 7.0, 25 µM compound, mean ± SD of two experiments”, the ΔTm at 25 µM came to 9.9 ± 0.2 °C.

Source of the values: publication PMC12072338, “Allosteric Modulation of GCase Enhances Lysosomal Activity and Reduces ER Stress in GCase-Related Disorders” (International Journal of Molecular Sciences, 2025).
